According to the NIST ThermoML archive (doi:10.1016/j.fluid.2010.11.026):
± gives the expanded uncertainty stated by the source.

Conditions: Liquid, Closed cell (Static) method

CCCO [propan-1-ol]
Conditions	vapor or sublimation pressure [kPa]
334.53 K	21.9 ± 0.4
342.07 K	31.2 ± 0.4
349.12 K	42.9 ± 0.4
353.96 K	52.7 ± 0.4
357.95 K	62.4 ± 0.4
361.25 K	71.4 ± 0.5
364.3 K	80.7 ± 0.5
367.51 K	91.6 ± 0.5
370.44 K	102.7 ± 0.5

CCCOC(C)=O [propyl ethanoate]
Conditions	vapor or sublimation pressure [kPa]
331.7 K	22.2 ± 0.4
340.16 K	31.1 ± 0.4
348.06 K	41.8 ± 0.4
353.27 K	50.4 ± 0.4
359.55 K	62.7 ± 0.4
363.29 K	71 ± 0.4
367.42 K	81.4 ± 0.5
371.07 K	91.5 ± 0.5
374.29 K	101.4 ± 0.5

CCO [ethanol]
Conditions	vapor or sublimation pressure [kPa]
317 K	21.9 ± 0.4
325.12 K	32.5 ± 0.4
330.28 K	41.3 ± 0.4
335.45 K	52 ± 0.4
339.58 K	62.3 ± 0.4
342.32 K	70 ± 0.5
345.79 K	80.9 ± 0.5
348.45 K	90.2 ± 0.5
351.31 K	101.4 ± 0.5
